Legend:
Format in all cases: in vivo
mice [1] = experiment: Forced Swim Test
Experimental: Forced Swim Test. The test apparatus consisted of a clear plastic cylindrical tank, 35 cm high and 25 cm in diameter, which was filled to a depth of 25 cm with tap water equilibrated overnight to room temperature (24° C.). A glass plate covered the top of the tank to prevent escape while the mouse was swimming. The water in the tank was replaced by fresh water at room temperature after three mice had been tested. To habituate the mouse, it was forced to swim in the tank for 15 min., then removed and dried by toweling and a heat lamp, and returned to its cage. Twenty-four hours later, the mouse was returned to the tank and allowed to swim for 5 min. while its swimming activity was recorded by a video camera, mounted above the tank. After this, the mouse was dried and returned to its cage. End points of the test were total time spent floating in an immobile position, without paddling of limbs (swimming) (Porsolt et al. Nature (1977) 266:730-732).

mice [2] = experiment: Hot plate test; conditions: peroral administration, 50 mg/kg, plate 55.0±0.5° C., 30 min after compound
Experimental: Hot plate test. Male mice weighing from 25 to 30 g were used in this test. […] The surface of the plate was maintained at a temperature of 55.0±0.5° C. […] Time (in seconds) to either hind paw licking or jumping was recorded as pain response latency. To avoid the likelihood of tolerance of mice to hot plate, all mice were exposed to hot plate only once through the whole experiment. The mice were exposed to hot plate only once; either before or after injection of drug.

mice [3] = experiment: Formalin paw test; conditions: formalin 4.5%, 20 μl, left hind paw, dose 30 mg/kg, compared to control
Experimental: Formalin paw test. The mice received an injection of formalin (4.5%, 20 μl) to the left hind paw. The irritation caused by the formalin injection elicits a characteristic biphasic behavioral response as quantified by the amount of time spent licking the injured paw. The first phase (˜5-10 minutes) represents direct chemical […], and the second phase (˜20-30 minutes) is thought to represent pain of neuropathic origin (Tjølsen A et al. Pain (1992) 51:5-17). The two phases are separated by a quiescent period in which behavior returns to normal. The effectiveness of test compounds to reduce the painful stimuli is assessed by counting the amount of time spent licking the injured paw in the two phases.

mice [4] = experiment: Tail-flick test
Experimental: Tail-flick test. The tail-flick test, using a radiant heat source was carried out to study antinociception. Each mouse was placed in an acrylic tube and its tail was laid across a Nichrome™ wire coil, which was heated by the passage of an electric current. The intensity of the current was kept at 5 mA. All animals were screened for the tail-flick response. Only those showing a flick within 4 sec were included in the study. After 1 h of final dosing, the mice were submitted to three tail-flick tests.

NC(=O)N1c2ccccc2C=Cc2ccccc21 [carbamazepine]
antidepressive effect (total time spent floating immobile) (mice [1]; 50 mg/kg): significant effect

CCCC(CCC)C(=O)[O-].[Na+] [sodium valproate]
antidepressive effect (total time spent floating immobile) (mice [1]; 250 mg/kg): significant effect

O=C1CNC(=O)/C1=C\NCc1ccccc1 [tetramic derivative of the invention]
antidepressive effect (total time spent floating immobile) (mice [1]; 100 mg/kg): significant antidepressive effect
analgesic effect (pain response latency, hot plate) (mice [2]): analgesic effect
reduction in pain score in the chronic phase (mice [3]): 5%
analgesic effect (tail-flick) compared to phenytoin and valproate (mice [4]; highest dose tested 500 mg/kg, versus phenytoin 100 mg/kg and valproate 500 mg/kg): relatively better analgesic effect
analgesic effect (tail-flick) (mice [4]; peroral administration, 1 h after final dosing): analgesic effect

From US20090069405A1, “TREATMENT OF CNS AND PAIN DISORDERS” (Valexfarm, Ltd., priority 2007, published 2009)
